Values after ≈ are worked out from the molar mass of the structure shown.
What was measured:
Format in all cases: functional
Escherichia coli = assay: Antibacterial activity against Escherichia coli assessed as growth inhibition by serial dilution method
Candida albicans = assay: Antifungal activity against Candida albicans assessed as growth inhibition by serial dilution method
[1] = system: Mycolicibacterium fortuitum; assay: Antimycobacterial activity against Mycobacterium fortuitum ATCC 19542 assessed as growth inhibition at 1 to 100 ug/mL by resazurin assay
Aspergillus flavus = assay: Antifungal activity against Aspergillus flavus assessed as growth inhibition by serial dilution method
Klebsiella pneumoniae [2] = assay: Antibacterial activity against Klebsiella pneumoniae assessed as growth inhibition by serial dilution method
Staphylococcus aureus [3] = assay: Antibacterial activity against Staphylococcus aureus assessed as growth inhibition by serial dilution method
[4] = system: Mycobacterium tuberculosis; assay: Antimycobacterial activity against Mycobacterium tuberculosis H37Rv assessed as growth inhibition at 0.3125 to 5 ug/mL by resazurin assay
[5] = system: Mycolicibacterium smegmatis; assay: Antimycobacterial activity against Mycobacterium smegmatis ATCC 19420 assessed as growth inhibition at 1 to 100 ug/mL by resazurin assay
[6] = system: Mycobacterium tuberculosis; assay: Antimycobacterial activity against Mycobacterium tuberculosis H37Rv assessed as growth inhibition at 1 to 100 ug/mL by resazurin assay; settings: for MIC: Mycobacterium tuberculosis, H37Rv
Rhizopus = assay: Antifungal activity against Rhizopus sp. assessed as growth inhibition by serial dilution method
[7] = system: Mycolicibacterium smegmatis; assay: Antimycobacterial activity against Mycobacterium smegmatis ATCC 19420 assessed as growth inhibition at 0.3125 to 5 ug/mL by resazurin assay
[8] = system: Mycolicibacterium fortuitum; assay: Antimycobacterial activity against Mycobacterium fortuitum ATCC 19542 assessed as growth inhibition at 0.3125 to 5 ug/mL by resazurin assay
Klebsiella pneumoniae [9] = assay: Potency index, ratio of ciprofloxacin MIC to compound MIC for Klebsiella pneumoniae
Staphylococcus aureus [10] = assay: Potency index, ratio of ciprofloxacin MIC to compound MIC for Staphylococcus aureus

SMILES | MIC (Escherichia coli) [µg/mL] | MIC (Candida albicans) [µg/mL] | MIC [1] [µg/mL] | MIC (Aspergillus flavus) [µg/mL] | MIC (Klebsiella pneumoniae [2]) [µg/mL] | MIC (Staphylococcus aureus [3]) [µg/mL] | MIC [4] [µg/mL] | MIC [5] [µg/mL] | growth inhibition (GI) [6] [%] | MIC [6] [µg/mL] | MIC (Rhizopus) [µg/mL] | MIC [7] [µg/mL] | MIC [8] [µg/mL] | PI (Klebsiella pneumoniae [9]) | PI (Staphylococcus aureus [10])
N#Cc1cccc(S(=O)(=O)n2c(COc3ccc([N+](=O)[O-])cc3)nc3cc(Br)ccc32)c1 | 64 (≈ 125 µM) | 64 (≈ 125 µM) | > 100 | 128 (≈ 249 µM) | 128 (≈ 249 µM) | 128 (≈ 249 µM) | 5 (≈ 9.74 µM) | 10 (≈ 19.5 µM) | <90 | > 100 | 128 (≈ 249 µM) | – | – | – | –
Cc1c(F)cccc1S(=O)(=O)n1c(COc2ccc([N+](=O)[O-])cc2)nc2cc(Br)ccc21 | > 256 | 128 (≈ 246 µM) | 10 (≈ 19.2 µM) | 256 (≈ 492 µM) | 128 (≈ 246 µM) | 64 (≈ 123 µM) | 10 (≈ 19.2 µM) | > 100 | <90 | > 100 | 256 (≈ 492 µM) | 10 (≈ 19.2 µM) | 10 (≈ 19.2 µM) | – | –
O=[N+]([O-])c1ccc(OCc2nc3cc(Br)ccc3n2S(=O)(=O)c2ccccc2Cl)cc1 | 4 (≈ 7.65 µM) | 8 (≈ 15.3 µM) | 10 (≈ 19.1 µM) | 32 (≈ 61.2 µM) | 8 (≈ 15.3 µM) | 16 (≈ 30.6 µM) | 0.625 (≈ 1.2 µM) | 1 (≈ 1.91 µM) | 90 | 1 (≈ 1.91 µM) | 16 (≈ 30.6 µM) | 1.25 (≈ 2.39 µM) | 10 (≈ 19.1 µM) | 1 | –
COc1ccc(S(=O)(=O)n2c(COc3ccc([N+](=O)[O-])cc3)nc3cc(Br)ccc32)c(OC)c1 | 256 (≈ 467 µM) | 128 (≈ 233 µM) | 10 (≈ 18.2 µM) | 128 (≈ 233 µM) | 128 (≈ 233 µM) | 64 (≈ 117 µM) | 1.25 (≈ 2.28 µM) | 1 (≈ 1.82 µM) | 90 | 1 (≈ 1.82 µM) | 256 (≈ 467 µM) | 1.25 (≈ 2.28 µM) | 1.25 (≈ 2.28 µM) | – | –
Cc1cccc(S(=O)(=O)n2c(COc3ccc([N+](=O)[O-])cc3)nc3cc(Br)ccc32)c1 | 64 (≈ 127 µM) | 64 (≈ 127 µM) | 10 (≈ 19.9 µM) | > 256 | > 256 | 128 (≈ 255 µM) | 1.25 (≈ 2.49 µM) | 10 (≈ 19.9 µM) | 90 | > 100 | 128 (≈ 255 µM) | – | 10 (≈ 19.9 µM) | – | –
COc1ccc(OC)c(S(=O)(=O)n2c(COc3ccc([N+](=O)[O-])cc3)nc3ccc(Br)cc32)c1 | > 256 | > 256 | > 100 | 256 (≈ 467 µM) | 128 (≈ 233 µM) | 256 (≈ 467 µM) | 5 (≈ 9.12 µM) | 10 (≈ 18.2 µM) | <90 | 10 (≈ 18.2 µM) | 128 (≈ 233 µM) | 10 (≈ 18.2 µM) | – | – | –
O=[N+]([O-])c1ccc(OCc2nc3ccc(Br)cc3n2S(=O)(=O)c2cc(F)ccc2F)cc1 | 64 (≈ 122 µM) | 128 (≈ 244 µM) | 10 (≈ 19.1 µM) | 64 (≈ 122 µM) | > 256 | 128 (≈ 244 µM) | 2.5 (≈ 4.77 µM) | 10 (≈ 19.1 µM) | <90 | 10 (≈ 19.1 µM) | 256 (≈ 488 µM) | 10 (≈ 19.1 µM) | 10 (≈ 19.1 µM) | – | –
O=[N+]([O-])c1ccc(OCc2nc3ccc(Br)cc3n2S(=O)(=O)c2ccc(Cl)cc2Cl)cc1 | > 256 | > 256 | > 100 | 128 (≈ 230 µM) | 256 (≈ 459 µM) | 64 (≈ 115 µM) | – | > 100 | 0 | > 100 | > 256 | – | – | – | –
O=[N+]([O-])c1ccc(OCc2nc3ccc(Br)cc3n2S(=O)(=O)c2cc(Cl)ccc2Cl)cc1 | 128 (≈ 230 µM) | > 256 | 10 (≈ 17.9 µM) | 256 (≈ 459 µM) | 128 (≈ 230 µM) | 64 (≈ 115 µM) | 10 (≈ 17.9 µM) | > 100 | 90 | 10 (≈ 17.9 µM) | 128 (≈ 230 µM) | – | 10 (≈ 17.9 µM) | – | –
O=[N+]([O-])c1ccc(OCc2nc3ccc(Br)cc3n2S(=O)(=O)c2ccccc2[N+](=O)[O-])cc1 | 128 (≈ 240 µM) | > 256 | 10 (≈ 18.8 µM) | > 256 | 256 (≈ 480 µM) | > 256 | 1.25 (≈ 2.34 µM) | 1 (≈ 1.88 µM) | 90 | 1 (≈ 1.88 µM) | 256 (≈ 480 µM) | 1.25 (≈ 2.34 µM) | 1.25 (≈ 2.34 µM) | – | –
N#Cc1cccc(S(=O)(=O)n2c(COc3ccc([N+](=O)[O-])cc3)nc3ccc(Br)cc32)c1 | > 256 | 128 (≈ 249 µM) | > 100 | > 256 | 256 (≈ 499 µM) | 256 (≈ 499 µM) | 5 (≈ 9.74 µM) | 10 (≈ 19.5 µM) | <90 | > 100 | 128 (≈ 249 µM) | – | – | – | –
Cc1c(F)cccc1S(=O)(=O)n1c(COc2ccc([N+](=O)[O-])cc2)nc2ccc(Br)cc21 | 256 (≈ 492 µM) | 256 (≈ 492 µM) | > 100 | > 256 | > 256 | > 256 | 1.25 (≈ 2.4 µM) | > 100 | <90 | 10 (≈ 19.2 µM) | 256 (≈ 492 µM) | – | – | – | –
O=[N+]([O-])c1ccc(OCc2nc3ccc(Br)cc3n2S(=O)(=O)c2ccccc2Cl)cc1 | > 256 | 128 (≈ 245 µM) | > 100 | > 256 | 256 (≈ 490 µM) | 128 (≈ 245 µM) | – | > 100 | 0 | > 100 | > 256 | – | – | – | –
COc1ccc(S(=O)(=O)n2c(COc3ccc([N+](=O)[O-])cc3)nc3ccc(Br)cc32)c(OC)c1 | 256 (≈ 467 µM) | > 256 | > 100 | 256 (≈ 467 µM) | 128 (≈ 233 µM) | > 256 | 2.5 (≈ 4.56 µM) | 10 (≈ 18.2 µM) | <90 | 10 (≈ 18.2 µM) | 128 (≈ 233 µM) | 2.5 (≈ 4.56 µM) | – | – | –
Cc1cccc(S(=O)(=O)n2c(COc3ccc([N+](=O)[O-])cc3)nc3ccc(Br)cc32)c1 | 128 (≈ 255 µM) | 256 (≈ 510 µM) | > 100 | > 256 | > 256 | > 256 | 5 (≈ 9.95 µM) | 10 (≈ 19.9 µM) | <90 | > 100 | > 256 | – | – | – | –
Nc1ccc(OCc2nc3cc(Br)ccc3[nH]2)cc1 | 128 (≈ 402 µM) | 64 (≈ 201 µM) | > 100 | 128 (≈ 402 µM) | 128 (≈ 402 µM) | 64 (≈ 201 µM) | 5 (≈ 15.7 µM) | 10 (≈ 31.4 µM) | <90 | 10 (≈ 31.4 µM) | 256 (≈ 805 µM) | 10 (≈ 31.4 µM) | – | – | –
COc1ccc(OC)c(S(=O)(=O)n2c(COc3ccc([N+](=O)[O-])cc3)nc3cc(Br)ccc32)c1 | 128 (≈ 233 µM) | 128 (≈ 233 µM) | 10 (≈ 18.2 µM) | 64 (≈ 117 µM) | 256 (≈ 467 µM) | 128 (≈ 233 µM) | 1.25 (≈ 2.28 µM) | 1 (≈ 1.82 µM) | 90 | 1 (≈ 1.82 µM) | 256 (≈ 467 µM) | 1.25 (≈ 2.28 µM) | 1.25 (≈ 2.28 µM) | – | –
O=[N+]([O-])c1ccc(OCc2nc3cc(Br)ccc3n2S(=O)(=O)c2ccc(Cl)cc2Cl)cc1 | 4 (≈ 7.18 µM) | 128 (≈ 230 µM) | > 100 | 64 (≈ 115 µM) | 64 (≈ 115 µM) | 8 (≈ 14.4 µM) | 5 (≈ 8.97 µM) | 10 (≈ 17.9 µM) | <90 | > 100 | 128 (≈ 230 µM) | – | – | – | –
O=[N+]([O-])c1ccc(OCc2nc3cc(Br)ccc3n2S(=O)(=O)c2cc(Cl)ccc2Cl)cc1 | 4 (≈ 7.18 µM) | 64 (≈ 115 µM) | 10 (≈ 17.9 µM) | 32 (≈ 57.4 µM) | 8 (≈ 14.4 µM) | 8 (≈ 14.4 µM) | 1.25 (≈ 2.24 µM) | 10 (≈ 17.9 µM) | 90 | > 100 | 16 (≈ 28.7 µM) | – | 10 (≈ 17.9 µM) | 1 | –
O=[N+]([O-])c1ccc(OCc2nc3cc(Br)ccc3n2S(=O)(=O)c2ccccc2[N+](=O)[O-])cc1 | 32 (≈ 60 µM) | 16 (≈ 30 µM) | 10 (≈ 18.8 µM) | 8 (≈ 15 µM) | 4 (≈ 7.5 µM) | 4 (≈ 7.5 µM) | 0.625 (≈ 1.17 µM) | 1 (≈ 1.88 µM) | 95 | 1 (≈ 1.88 µM) | 16 (≈ 30 µM) | 1.25 (≈ 2.34 µM) | 10 (≈ 18.8 µM) | 2 | 1
C[C@@H]1[C@H](O)[C@@H](C)/C=C/C=C/C=C/C=C/C=C/C=C/C=C/[C@H](O[C@@H]2O[C@H](C)[C@@H](O)[C@H](N)[C@@H]2O)C[C@@H]2O[C@](O)(C[C@@H](O)C[C@@H](O)[C@H](O)CC[C@@H](O)C[C@@H](O)CC(=O)O[C@H]1C)C[C@H](O)[C@H]2C(=O)O [AMPHOTERICIN B] | – | 8 (≈ 8.66 µM) | – | 8 (≈ 8.66 µM) | – | – | – | – | – | – | 16 (≈ 17.3 µM) | – | – | – | –
O=C(O)c1cn(C2CC2)c2cc(N3CCNCC3)c(F)cc2c1=O [CIPROFLOXACIN] | – | – | – | – | 16 (≈ 48.3 µM) | 8 (≈ 24.1 µM) | – | – | – | – | – | – | – | – | –
NNC(=O)c1ccncc1 [ISONIAZID] | – | – | 12.5 (≈ 91.1 µM) | – | – | – | 0.7 (≈ 5.1 µM) | 50 (≈ 365 µM) | 95 | 0.7 (≈ 5.1 µM) | – | 50 (≈ 365 µM) | 12.5 (≈ 91.1 µM) | – | –
CO[C@H]1/C=C/O[C@@]2(C)Oc3c(C)c(O)c4c(O)c(c(/C=N/N5CCN(C)CC5)c(O)c4c3C2=O)NC(=O)/C(C)=C\C=C\[C@H](C)[C@H](O)[C@@H](C)[C@@H](O)[C@@H](C)[C@H](OC(C)=O)[C@@H]1C [RIFAMPIN] | – | – | 1.5 (≈ 1.82 µM) | – | – | – | 0.5 (≈ 0.608 µM) | 1.5 (≈ 1.82 µM) | 95 | 0.5 (≈ 0.608 µM) | – | 1.5 (≈ 1.82 µM) | 1.5 (≈ 1.82 µM) | – | –
